Target: cGMP-specific 3',5'-cyclic phosphodiesterase PDE5 (Oryctolagus cuniculus)
Test: Inhibition of phosphodiesterase 5 of rabbit platelets

- IC50: 0.29 nM
SMILES: CCCOc1ccc(S(=O)(=O)N2CCC(CCP(=O)(O)OCC)CC2)cc1-c1nc2c(CCC)nn(C)c2c(=O)[nH]1 [(2-{1-[3-(1-Methyl-7-oxo-3-propyl-6,7-dihydro-1H-pyrazolo[4,3-d]pyrimidin-5-yl)-4-propoxy-benzenesulfonyl]-piperidin-4-yl}-ethyl)-phosphonic acid monoethyl ester]
